Measurements as given in US20240345095A1, “AN ASSAY FOR DETERMINING GASTROINTESTINAL PERMEABILITY BY DETERMINING A RATIO OF THE CONCENTRATION OF LACTULOSE TO THE CONCENTRATION OF GALACTOSE IN THE BLOOD SAMPLE” (TriviumVet Designated Activity Company, priority 2021, published 2024).
Values belong to the compound of their own block, whether it stands above or below them.

Tests used:
[1] = Plasma absorption time course of lactulose and galactose after oral administration (findings stated in the summary); assay type: in vivo
[2] = biological target: H-2 receptors on the parietal cell (Homo sapiens, UniProt P25021); details: human subjects, administered intravenously; cited from earlier work
H-2 receptors on the parietal cell, sequence (P25021 whole entry): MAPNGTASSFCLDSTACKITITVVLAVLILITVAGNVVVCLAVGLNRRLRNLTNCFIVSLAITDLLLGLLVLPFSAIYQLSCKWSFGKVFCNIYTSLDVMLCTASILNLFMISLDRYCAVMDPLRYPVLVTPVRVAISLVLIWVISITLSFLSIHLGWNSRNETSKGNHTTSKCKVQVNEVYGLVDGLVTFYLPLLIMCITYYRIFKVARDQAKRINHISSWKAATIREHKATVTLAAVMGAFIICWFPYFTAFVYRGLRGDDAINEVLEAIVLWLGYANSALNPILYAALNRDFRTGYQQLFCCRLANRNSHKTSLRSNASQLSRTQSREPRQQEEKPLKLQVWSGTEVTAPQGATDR

gastric ulcers = details: foals, ulcers associated with intravenous administration of high-dose NSAIDs; cited from earlier work

Time after which the rate of lactulose absorption slows ([1]; after oral administration): approximately 60 minutes
Period over which lactulose absorption occurs ([1]; health and disease states, after oral administration): up to 3 hours
Compound: OC[C@H]1O[C@@H](O[C@@H]2[C@@H](CO)OC(O)(CO)[C@H]2O)[C@H](O)[C@@H](O)[C@H]1O (mixture of isomers) [Lactulose, lactulose]

Compound: NC(N)=Nc1nc(CSCCC(N)=NS(N)(=O)=O)cs1 [famotidine]
Time to pharmacological tolerance [2]: 12-72 hours

Time at which galactose absorption peaks ([1]; after oral administration): ≤ 15 min
Time galactose remains present in plasma at measurable micromolar concentrations ([1]; after oral administration, majority of individuals tested): approximately 60 minutes
Time to peak plasma concentrations of galactose ([1]; galactose concentrations below 2% in the oral solution): ≤ 5 min
Compound: O=C[C@H](O)[C@@H](O)[C@@H](O)[C@H](O)CO [galactose]

Compound: sucralfate
Effect on gastric ulcers (gastric ulcers): protective effect
